From PMC13112199 (Nature nanotechnology, 2025)
Entries after “also recorded” stand apart in the source; their conditions may differ.

Experiments:
[1] = UPLC in vitro release assay of small molecules from MDP hydrogels; type: physicochemical
[2] = high doses; cited from earlier work
M. tuberculosis H37Rv = experiment: Mouse model of acute tuberculosis, lung CFU counts; type: in vivo, Mycobacterium tuberculosis; settings: for reduction of colony-forming units in lungs: 600 μg single sc injection without hydrogel; for reduction in bacterial burden compared with vehicle control: ten oral doses of 60 μg
[3] = Stability of ganfeborole loaded in hydrogels quantified by UPLC; type: physicochemical
[4] = Ganfeborole pharmacokinetics after subcutaneous injection
blood glucose levels = experiment: Mouse type 1 diabetes model, blood glucose control; type: in vivo; settings: 3 IU sc without a hydrogel, diabetic mice
[5] = female, BALB/c, mouse, in vivo, sc
[6] = Bortezomib pharmacokinetics after subcutaneous injection; settings: 175 ng sc, alone without hydrogel
[7] = Boronate ester association; type: physicochemical; settings: SHA vs catechol, across boronic acids
[8] = UV–vis stability of dynamic covalent bonding motifs in solution; settings: pH 7.4 PBS, over 15 days
[9] = 600 μg in SHA-E2, non-compartmental analysis
[10] = 600 μg in SHA-K2 vs drug alone, non-compartmental analysis
[11] = from Cat-K2 hydrogel, first 2 h
[12] = from nitroCat-K2 hydrogel, 24 h
[13] = from unmodified K2 hydrogel, first 2 h, 10 mg ml^-1 peptide, PBS, 37 °C

Question: With `COCCOc1nc(N)c2[nH]c(=O)n(Cc3ccc(C(=O)O)cc3)c2n1` [Compound 1V209] as the compound, how does the “in vitro release kinetics from SABER hydrogels” value ([1]; drug without BA, SABER hydrogels vs K2) read?
Answer: Its value is “no altered release kinetics were observed”.

Question: For `NC[C@H]1OB(O)c2c(OCCO)ccc(Cl)c21` [ganfeborole], which tolerability in humans [2] is on record?
Answer: The tolerability in humans was “well tolerated in humans at high doses”.

Question: What about the “bacterial burden reduction compared with oral dosing” value (M. tuberculosis H37Rv; 600 μg single injection in SHA-E2 vs ten oral doses) of the same compound?
Answer: Its value is ~10 fold.

Question: What about the “reduction in bacterial lung burden compared with vehicle control” value (M. tuberculosis H37Rv; 600 μg single sc injection in SHA-E2, 7 days) of the same compound?
Answer: Its value is 2.58 log10.

Question: What about the “reduction in bacterial lung burden compared with vehicle control” value (M. tuberculosis H37Rv; 600 μg single sc injection in SHA-E2, 14 days) of the same compound?
Answer: The value was 4.12 log10.

Question: And the “reduction of colony-forming units in lungs” value (M. tuberculosis H37Rv; 7 days)?
Answer: Its value is 0.95 log10.

Question: And the “reduction of colony-forming units in lungs” value (M. tuberculosis H37Rv; 14 days)?
Answer: Its value is 1.55 log10.

Question: And the “reduction in bacterial burden compared with vehicle control” value (M. tuberculosis H37Rv; 7 days)?
Answer: The value was 1.67 log10.

Question: And the “reduction in bacterial burden compared with vehicle control” value (M. tuberculosis H37Rv; 14 days)?
Answer: The value was 3.32 log10.

Question: And the “stability of drug loaded in hydrogel” value ([3]; in Cat-K2)?
Answer: The value was “rapid oxidative degradation; also recorded: rapidly degrades the compound”.

Question: And the “stability of drug loaded in hydrogel” value ([3]; in K2, nitroCat-K2 and SHA-K2 (all hydrogels except Cat-K2), two weeks)?
Answer: Its value is “majority of the drug remains stable over the course of two weeks”.

Question: And the “in vitro release rate” value ([1]; from K2 hydrogel)?
Answer: The value was “similarly rapid release rates”.

Question: What about the “drug released in vitro” value ([1]; from K2 hydrogel, 30 min) of the same compound?
Answer: Its value is 59.0 ± 1.1%.

Question: And the “in vitro release” value ([1]; from SHA-E2 hydrogel, loaded at 0.5 mg ml^-1)?
Answer: The value was “significantly slowed the release; also recorded: performed similarly to SHA-K2”.

Question: What about the “drug released in vitro” value ([1]; from SHA-K2 hydrogel, 24 h) of the same compound?
Answer: The value was 48.7 ± 2.5%.

Question: What about the “in vitro release rate” value ([1]; from SHA-K2 hydrogel, compared with K2) of the same compound?
Answer: The value was “significantly extend the release”.

Question: And the “in vitro release rate” value ([1]; from nitroCat-K2 hydrogel)?
Answer: Its value is “similarly rapid release rates”.

Question: And the “in vivo release” value ([4]; 75 μg sc in 50 μl of 10 mg ml^-1 K2)?
Answer: The value was “unable to prolong drug release in vivo”.

Question: And the “duration of concentration above the EC50 relative to other groups” value ([4]; 75 μg sc in 50 μl of 10 mg ml^-1 SHA-K2, EC50 ref 51)?
Answer: The value was “over 4 fold”.

Question: What about the “in vivo release” value ([4]; 75 μg sc in 50 μl of 10 mg ml^-1 nitroCat-K2) of the same compound?
Answer: The value was “unable to prolong drug release in vivo”.

Question: And the “in vivo release compared with unmodified E2 hydrogel” value ([4]; 600 μg in 200 μl of 20 mg ml^-1 SHA-E2)?
Answer: Its value is “prolongs drug release”.

Question: What about the “enhancement of half-life compared with ganfeborole alone” value ([4]; 600 μg in SHA-E2) of the same compound?
Answer: The value was “over 10 fold”.

Question: What about the “effect on Cmax” value [4, 9] of the same compound?
Answer: Its value is “reduces the maximum circulating concentration”.

Question: What about the “effect on drug exposure (AUC)” value [4, 9] of the same compound?
Answer: The value was “improves drug exposure”.

Question: What about the “effect on Cmax” value ([4]; 600 μg in SHA-K2 vs drug alone) of the same compound?
Answer: The value was “reducing the maximum drug concentration”.

Question: And the “improvement of AUC” value [4, 10]?
Answer: Its value is 2.8 fold.

Question: What about the increase of half-life [4, 10] of the same compound?
Answer: The increase of half-life was 6.5 fold.

Question: What does the source list for `CC(C)C[C@H](NC(=O)CNC(=O)c1cc(Cl)ccc1Cl)B(O)O` [ixazomib]?
Answer: drug released in vitro [1, 11]: > 57.1%; drug released in vitro ([1]; from SHA-K2 hydrogel, 2 h): 15–25%; drug released in vitro ([1]; from SHA-K2 hydrogel, 24 h): 50–70%; drug released in vitro ([1]; from nitroCat-K2 hydrogel, 2 h): 15–25%; drug released in vitro [1, 12]: 50–70%; drug released in vitro [1, 13]: > 82.3%

Question: With `OB1OCc2cc(F)ccc21` [tavaborole] as the compound, how does the “drug released in vitro” value ([1]; from Cat-K2 hydrogel, 24 h) read?
Answer: Its value is 80.0 ± 4.7%.

Question: What about the “drug released in vitro” value ([1]; from SHA-K2 hydrogel, 24 h) of the same compound?
Answer: Its value is 49.1 ± 0.3%.

Question: What about the “drug released in vitro” value [1, 12] of the same compound?
Answer: The value was 64.8 ± 0.9%.

Question: Which “time until mice became hyperglycemic again” value (blood glucose levels) does the source give for “insulin: commercially purchased unmodified insulin” here?
Answer: Its value is ≤ 4 h.

Question: And the “time until mice became hyperglycemic again” value (blood glucose levels; listed as unmodified insulin)?
Answer: The value was “less than 4 h”.

Question: Which “blood concentration at 336 h relative to peak-matched 175 ng control” value [5] does the source give for `CC(C)C[C@H](NC(=O)[C@H](Cc1ccccc1)NC(=O)c1cnccn1)B(O)O` [bortezomib] here?
Answer: Its value is 2.7 fold.

Question: What about the “drug released in vitro” value [1, 11] of the same compound?
Answer: Its value is > 57.1%.

Question: What about the “glucose dependence of in vitro release” value ([1]; from SHA-K2, physiologically relevant glucose range) of the same compound?
Answer: The value was “independent of glucose concentration”.

Question: What about the “drug released in vitro” value ([1]; from SHA-K2 hydrogel, 2 h) of the same compound?
Answer: Its value is 15–25%.

Question: And the “drug released in vitro” value ([1]; from SHA-K2 hydrogel, 24 h)?
Answer: Its value is 50–70%.

Question: What about the “drug released in vitro” value ([1]; from nitroCat-K2 hydrogel, 2 h) of the same compound?
Answer: Its value is 15–25%.

Question: What about the “drug released in vitro” value [1, 12] of the same compound?
Answer: Its value is 50–70%.

Question: What about the “drug released in vitro” value [1, 13] of the same compound?
Answer: Its value is > 82.3%.

Question: What about the maximum concentration [6] of the same compound?
Answer: The maximum concentration was 21.2 ± 3.1 ng/mL.

Question: For `O=C(NO)c1ccccc1O` [SHA, salicylhydroxamic acid], which “boronate ester association constant relative to catechol association constants” value [7] is on record?
Answer: The value was 6.5- to 9.6 fold.

Question: And the “stability in solution by UV–vis” value [8]?
Answer: The value was “excellent stability over 15 days in solution”.
